Patent US20250281496A1, “METHODS OF TREATING NEUROPATHY USING FORETINIB AND COMPOSITIONS THEREOF” (INDIANA UNIVERSITY RESEARCH AND TECHNOLOGY CORPORATION, priority 2022, published 2025)
Entries after “also recorded” stand apart in the source; their conditions may differ.

Key:
[1] = tested on: experimental diabetic neuropathy; experiment: Lower extremity nerve histomorphology (sciatic and sural nerve) in STZ-diabetic mice; assay type: in vivo; conditions: 30 mg/kg oral daily, five weeks post-diabetes induction
Protocol: In total, 20 mice were injected with 100 mg/kg bodyweight of streptozotocin (STZ, […], Sigma Aldrich) in 0.1M citrate buffer (pH 4.5) on two consecutive days respectively, to induce diabetes type 1^27. Prior to the first injection and in weekly intervals thereafter, all animals were weighted and underwent tail prick blood sugar measurements using a clinical grade monitoring system (Contour One, Ascensia Diabetes Care, Mississauga, Ontario) as previously described. Mice were considered diabetic when blood glucose was at least 15 mmol/L (270 mg/dl). Prior to diabetes induction the mice were block randomized into experimental groups (n=10 Foretinib treatment, n=5 vehicle treatment, n=5 non-treated diabetic control). An additional 5 non-diabetic animals served as a healthy control. Foretinib treatments started 1-week post-diabetes induction. Foretinib was prepared fresh daily by dissolving 6 mg Foretinib in 1 ml of 1% (Hydroxypropyl)-methyl cellulose (09963, Sigma Aldrich) and 0.2% sodium dodecyl sulfate ([…], Sigma Aldrich) in sterile H2O. […] A custom-trained deep learning model based on the open-source software AxonDeepSeg^29 determined axon diameter and myelin sheath thickness and g-ratio for entire nerve cross sections.

Rat sympathetic neurons = experiment: NGF withdrawal in compartmented cultures of sympathetic neurons; assay type: cell-based
Protocol: A) Rat sympathetic neurons grown in compartmented cultures for one week in the presence of NGF were switched into the indicated conditions for 48 h and immunostained for βIII-tubulin (white). Schematics on the left show the configurations used. In the top panels, NGF was maintained in all compartments. In the center and bottom panels, NGF was withdrawn from all compartments. At the bottom panel and 500 nM foretinib (Foret) added to one of the sides and the center compartment. Fluorescence images show βIII-tubulin-positive axons in the sides compartment. At the right, enlarged images of the axons per condition. While the NGF deprived neurons degenerated (axonal beading and degradation in the central panel), Foretinib supplemented (lower panel) axons kept growing Red arrow at the top of the image indicates the distance of the axonal extension during 48 h since NGF withdrawal. Size bar: […].B) MNs were differentiated from healthy human iPS (Line ID 1016A)^62 as described^63. 3 day old MNs were treated with either 1 μM of Thapsigargin (Thaps) or 1 μM Tunicamycin (Tuni) and/or with either 0.5 uM of Foretinib. […] C) Quantitative representation of the results as in B. Error bars represent standard error; *p<0.05; ***p<0.005; t-test. […] E) Quantitative representation of changes in mouse body weight in dependence of the indicated IP daily doses of Foretinib. […]

[2] = mouse, in vivo, ip, 20 days
Protocol: (§1) A) Quantitative representation of changes in mouse body weight in dependence of the indicated IP daily doses of Foretinib (n=2 per dose). B) Changes in mouse blood plasma concentration of 5 mg/kg IP injected Foretinib during 48 hours after a single injection (n=3).
(§2) It is expected that Foretinib will protect against the diabetes-induced loss of terminal axons and ensheathing SC. In our previous study, 30 mg/kg of foretinib was administered via daily gavage for a course of 5 weeks. Although reported as non-toxic, at this dose the drug, along with a strong neuroprotective effect, caused lethargic behavior, ruffled fur and weight loss requiring early termination of the experiment. Due to the substantial prevalence of type 2 diabetes, we will examine the effect of foretinib treatment on type 2 diabetic mice (db/db). To define the maximal tolerable dose, we treated wt mice by daily intraperitoneal (IP) injection of several various dosages of foretinib for 20 days, while assessing the mice weight and behavior. […] Next, to define the pharmacokinetic (PK) characteristics of the drug, we performed a mass spectrometry analysis of blood samples from wt mice treated with 5 mg/kg (n=3 mice per dose per time point). We observed that IP injection of 5 mg/kg of foretinib generated nearly 100 ng/ml blood concentration during first 4 hours, declining by 4 ng/ml/hour (FIG. 7B).

[3] = tested on: Embryonic rat sensory neurons; experiment: Myelination in cultured embryonic rat sensory neurons (MBP-positive area); assay type: cell-based; conditions: primary wt neuronal/SC co-cultures, 10 days since induction of myelination, n=4, p<0.0001
Source text: A) Embryonic rat sensory neurons were harvested, dissociated and cultured. Myelination was induced in presence of Foretinib (right image) or vehicle only (left image). 10 days since induction of myelination the cultures were fixed and immunosatined for myelin basic protein (MBP) (green), bIII-tubulin (red) and DAPI (blue). Scale bar: […]. B) Quantitative representation of the area proportion occupied by MBP-positive myelin segments (as in A) n=4, p<0.0001.

[4] = tested on: wt and Sod1^G93A cultured mouse MN; experiment: Survival of trophic factor-deprived cultured mouse motor neurons; assay type: cell-based
[5] = tested on: sympathetic and sensory neurons; experiment: Neuroprotection in primary culture of sympathetic and sensory neurons (trophic deprivation); assay type: cell-based
[6] = tested on: sympathetic and sensory neurons; conditions: in vitro, previously shown (ref 17); cited from earlier work
[7] = Pharmacokinetics: blood plasma concentration after single IP injection, mass spectrometry; assay type: in vivo, mice
Protocol: as §1, §2

Compound: COc1cc2c(Oc3ccc(NC(=O)C4(C(=O)Nc5ccc(F)cc5)CC4)cc3F)ccnc2cc1OCCCN1CCOCC1 [Foretinib, N1-[3-Fluoro-4-({6-methoxy-7-[3-(morpholin-4-yl)propoxy]quinolin-4-yl}oxy)phenyl]-N′1-(4-fluorophenyl)cyclopropane-1,1-dicarboxamide]
- peripheral nerve histomorphology (axon diameter, myelin sheath thickness, g-ratio) [1]: did not affect peripheral nerve histomorphology
- axonal growth after NGF withdrawal (Rat sympathetic neurons; 500 nM foretinib in center and one side compartment, 48 h, preliminary n=2): induced axonal growth, similarly to the NGF containing cultures; also recorded: greater axonal length of the neurons than neurons cultured with NGF
- cell body and axonal survival after NGF withdrawal (Rat sympathetic neurons; 500 nM foretinib, 48 hours post NGF withdrawal): supported cell bodies and axonal survival
- maximal tolerable dose not affecting behavior and body weight [2]: 5 mg/kg
- axonal myelination (area proportion of MBP-positive myelin segments) [3]: significantly improved axonal myelination
- survival of trophic factor-deprived motor neurons [4]: induced survival
- effective neuroprotective concentration [5]: > 100 nM
- axonal die-back under trophic deprivation [6]: prevents axonal die-back mechanisms
- decline of blood concentration ([7]; 5 mg/kg IP single injection, after first 4 hours): 4 ng/mL/h
- blood concentration during first 4 hours ([7]; 5 mg/kg IP single injection, wt mice, n=3): ~100 ng/mL
- blood concentration expressed in molar units ([7]; 5 mg/kg IP, conversion of 100 ng/ml): 160 nM
